Patent US20250302903A1, “COMPOSITION FOR PREVENTION AND TREATMENT OF MUSCLE DISEASE, CONTAINING MAGNOLIA OFFICINALIS EXTRACT AS ACTIVE INGREDIENT” (TWINPIGBIOLAB INC., priority 2022, published 2025)

Key:
[1] = test system: mouse colon cancer cell line CT26; assay: Anti-tumor activity of cisplatin in the CT26 colon cancer-bearing mouse model; assay type: in vivo; details: cisplatin alone; CT26 s.c. 3×10^5 per mouse
Method: To confirm whether administration of the Magnolia officinalis extract interfered with the anti-tumor activity of cisplatin, a mouse colon cancer cell line CT26 (Korean Cell Line Bank, 80009; Seoul, Korea) was injected subcutaneously at 3×10^5 per mouse to fabricate a colon cancer-bearing mouse model, and then treated with cisplatin or cisplatin+Magnolia officinalis extract (200 mg/kg), and the size (volume) and weight of tumor were measured every 3 days.

[2] = test system: cisplatin-induced sarcopenia mouse model; assay: Grip strength (forelimb and all limbs) by digital force gauge; assay type: in vivo, mice (C57BL/6); details: M.C 100 and 200 mg/kg; magnolol 10 mg/kg i.p.
Method: To determine the effect of the Magnolia officinalis extract on cisplatin-induced grip strength reduction, muscle strength of all limbs and muscle strength of forelimb were measured using a digital force gauge (DS2-5N; IMADA Inc., Northbrook, IL, USA). The muscle strength was measured by pulling the mouse's tail downward 5times and recording the peak tension when the mouse released its foot, and repeated 3 times at 10-minute intervals, and the average of 5 values was used for calculation.

[3] = test system: cells expressing both CD68 and IGF-1; assay: Immunohistochemistry of CD68 and IGF-1 in TA muscle sections; assay type: in vivo, mice (C57BL/6); details: per image area
Method: It was confirmed whether […], which shifted the polarization of a macrophage phenotype from M2a to M2c (macrophages involved in extracellular matrix remodeling and muscle healing), and the number of macrophages were affected in skeletal muscle by administration of a Magnolia officinalis extract. Specifically, the TA muscle tissue sections of Example 4-3 were incubated overnight with a primary antibody, rat anti-mouse CD68 antibody (1:250; MCA1957GA; Bio-Rad, Contra Costa County, CA, USA) and rabbit anti-mouse IGF-1 antibody (1:500; 40657; Abcam, Cambridge, UK), and then incubated for 30 minutes with a secondary antibody, Alexa Fluor 488-conjugated goat anti-rat immunoglobulin IgG (A11006; Invitrogen, Carls-bad, CA, USA) and Alexa Fluor 594-conjugated goat anti-rabbit IgG (A32740; Invitrogen, Carlsbad, CA, USA). Thereafter, the sections were mounted using mounting media containing 4′,6-diamidino-2-phenylindole (DAPI) (H-1200, Vector, Torrance, CA, USA), and then imaged under a confocalator microscope (FV10C-PSU; Olympus Corporation, Tokyo, Japan). In the captured images, the numbers of IGF-I (red), CD68 (macrophage) (green), and DAPI (blue) positive cells per image area were measured in at least five random fields.

[4] = test system: cisplatin-induced sarcopenia mouse model
Method: Specifically, mice (C57BL/6, 7 to 8 weeks old) (Jackson Laboratories, Raon Bio, Gyeonggi) were randomly caged and raised in a regulated environment with free access to food and water with a 12-hour light/dark cycle, and then on days 1 to 5 and days 26 to 30, cisplatin (Sigma-Aldrich, P4394; St. Louis, MO, USA) (2.5 mg/kg) dissolved at 1 mg/mL in physiological saline was injected intraperitoneally once daily (sarcopenia mouse model), M.C (50, 100 and 200 mg/kg) were administered orally every 3 days (total of 12 times).

[5] = test system: cisplatin-induced sarcopenia mouse model; assay: Leg weight and tibialis anterior (TA) muscle mass on day 42, cisplatin-induced skeletal muscle wasting; assay type: in vivo, mice (C57BL/6); details: vs cisplatin group
Method: In order to confirm an effect of a Magnolia officinalis extract on cisplatin-induced skeletal muscle wasting, the leg weight and tibialis anterior (TA) muscle mass of each group were measured on day 42 of the experiment.

Structure (SMILES) | tumor growth (size and weight) [1] | pulling force power (grip strength) compared to the cisplatin administered group [2] | number of cells expressing both CD68 and IGF-1 [3] | cisplatin-induced rapid weight loss (body weight, A of FIG. 2) ([4]; M.C 50, 100 and 200 mg/kg orally every 3 days (12 times), magnolol 10 mg/kg i.p. every 3 days, vs CIS+PBS) | changes in weight on the last and first days (B of FIG. 2) ([4]; M.C orally or magnolol 10 mg/kg i.p. vs cisplatin group) | TA muscle mass reduction induced by cisplatin [5] | leg weight reduction induced by cisplatin [5]
N.N.[Cl][Pt][Cl] [cisplatin] | significantly reduced tumor growth | – | – | – | – | – | –
C=CCc1ccc(O)c(-c2cc(CC=C)ccc2O)c1 [magnolol] | – | significantly increased | increased | significantly alleviated | significant reduction in weight loss | significantly alleviated | significantly alleviated
